Values of other authors in patent US20030143271A1, “Drug mixture with enhanced dissolution rate” (priority 2002, published 2003).

Experiments:
[1] = target: platelet cyclooxygenase-1 (Homo sapiens, UniProt P23219); conditions: clinical relevance not clear
[2] = system: antiplatelet effects of the aspirin; conditions: in combination with low-dose aspirin, healthy subjects

platelet cyclooxygenase-1, sequence (P23219 24-599): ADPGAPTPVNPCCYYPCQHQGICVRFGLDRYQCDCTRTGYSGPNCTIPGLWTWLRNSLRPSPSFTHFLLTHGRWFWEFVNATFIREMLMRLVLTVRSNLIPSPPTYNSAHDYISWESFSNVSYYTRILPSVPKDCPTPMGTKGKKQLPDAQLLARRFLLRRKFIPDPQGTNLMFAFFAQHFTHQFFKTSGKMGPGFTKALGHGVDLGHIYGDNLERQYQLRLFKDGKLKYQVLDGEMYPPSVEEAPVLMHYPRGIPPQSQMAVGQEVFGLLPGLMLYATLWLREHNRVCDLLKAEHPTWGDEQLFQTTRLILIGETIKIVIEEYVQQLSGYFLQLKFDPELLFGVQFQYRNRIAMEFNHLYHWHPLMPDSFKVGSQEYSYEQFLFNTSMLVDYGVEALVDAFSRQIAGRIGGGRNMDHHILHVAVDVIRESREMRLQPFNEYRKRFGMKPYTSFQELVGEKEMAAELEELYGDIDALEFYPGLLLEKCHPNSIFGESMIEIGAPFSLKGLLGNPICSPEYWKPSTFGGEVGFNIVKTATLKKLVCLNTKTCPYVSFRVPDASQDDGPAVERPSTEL

| effect on the antiplatelet activity of aspirin [1] | SMILES | effect on antiplatelet effects of aspirin [2] |
| --- | --- | --- |
| some antagonistic effect | CS(=O)(=O)c1ccc(C2=C(c3ccccc3)C(=O)OC2)cc1 [rofecoxib] | did not alter antiplatelet effects of the aspirin |
| some antagonistic effect | Cc1onc(-c2ccccc2)c1-c1ccc(S(N)(=O)=O)cc1 [valdecoxib] | – |
